US9795602B2, “Polycyclic-carbamoylpyridone compounds and their pharmaceutical use” (Gilead Sciences, Inc., priority 2014, dated 2017)

Key:
Type in all cases: cell-based
Details in all cases: MT2 cells; mean EC50 mutant / mean EC50 wt
HIV-1 N155H/Q148R = system: HIV-1 N155H/Q148R
HIV-1 G140S/Q148R = system: HIV-1 G140S/Q148R
HIV-1 E138K/Q148K = system: HIV-1 E138K/Q148K

Compound | Resistance fold shift N155H/Q148R vs. wild type (HIV-1 N155H/Q148R) [fold shift] | Resistance fold shift G140S/Q148R vs. wild type (HIV-1 G140S/Q148R) [fold shift] | Resistance fold shift E138K/Q148K vs. wild type (HIV-1 E138K/Q148K) [fold shift]
CCN1C(=O)c2c(O)c(=O)c(C(=O)NCc3ccc(F)c(Cl)c3F)cn2[C@H]2CCO[C@H]21 [Compound 25b] | 2.2 | 1.9 | 2.3
CCN1C(=O)c2c(O)c(=O)c(C(=O)NCc3ccc(F)c(Cl)c3F)cn2[C@H]2CCOC[C@H]21 [Compound 39] | 2.8 | 1.8 | 1.5
